“And” between values parts separate entries of the source, which are not always exact repeats. Equal entries are not always repeated. Where two headings read alike, the source gives them in different places.
Key:
Assay type in all cases: cell-based
[1] = target: T1, protein kinases (human kinome) (Homo sapiens, UniProt Q14CZ7); conditions: Accession Q14CZ7, direction down
T1 sequence (Q14CZ7 1-662): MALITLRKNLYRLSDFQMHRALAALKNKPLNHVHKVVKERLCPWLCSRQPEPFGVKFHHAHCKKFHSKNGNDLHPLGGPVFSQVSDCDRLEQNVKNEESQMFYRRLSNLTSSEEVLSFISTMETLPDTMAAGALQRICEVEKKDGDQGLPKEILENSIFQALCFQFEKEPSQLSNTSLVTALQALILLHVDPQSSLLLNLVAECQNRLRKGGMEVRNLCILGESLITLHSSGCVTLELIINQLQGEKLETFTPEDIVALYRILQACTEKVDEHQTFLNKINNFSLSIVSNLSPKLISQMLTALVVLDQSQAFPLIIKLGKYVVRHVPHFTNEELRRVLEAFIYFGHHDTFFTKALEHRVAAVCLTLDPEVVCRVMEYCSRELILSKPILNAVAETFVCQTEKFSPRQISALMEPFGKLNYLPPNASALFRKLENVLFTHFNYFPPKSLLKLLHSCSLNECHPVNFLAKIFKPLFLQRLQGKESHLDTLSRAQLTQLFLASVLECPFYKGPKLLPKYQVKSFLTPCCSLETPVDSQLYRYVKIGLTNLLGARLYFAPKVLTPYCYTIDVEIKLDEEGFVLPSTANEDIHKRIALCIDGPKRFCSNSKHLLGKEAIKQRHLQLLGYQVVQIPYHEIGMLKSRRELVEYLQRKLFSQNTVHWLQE

[2] = target: protein kinases (human kinome) (Homo sapiens, UniProt Q15118); conditions: PDK1 Q15118; experiment wp084
Chain of protein kinases (human kinome) (Homo sapiens, UniProt Q15118) (Q15118 29-436): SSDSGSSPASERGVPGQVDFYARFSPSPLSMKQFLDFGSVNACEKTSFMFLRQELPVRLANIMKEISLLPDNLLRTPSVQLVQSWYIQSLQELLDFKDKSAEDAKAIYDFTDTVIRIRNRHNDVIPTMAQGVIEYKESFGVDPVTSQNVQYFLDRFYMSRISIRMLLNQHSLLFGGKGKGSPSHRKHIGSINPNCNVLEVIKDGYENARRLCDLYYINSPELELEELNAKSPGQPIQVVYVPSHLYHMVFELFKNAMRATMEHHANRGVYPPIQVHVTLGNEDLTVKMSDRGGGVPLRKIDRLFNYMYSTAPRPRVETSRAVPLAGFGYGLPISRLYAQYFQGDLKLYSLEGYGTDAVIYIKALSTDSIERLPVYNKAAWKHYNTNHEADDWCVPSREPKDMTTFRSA

[3] = target: protein kinases (human kinome) (Homo sapiens, UniProt Q15119); conditions: experiment wp084
[4] = target: protein kinases (human kinome) (Homo sapiens, UniProt Q00537); conditions: for logFC of CDK17: Accession Q00537; for logFC CDK17 (Q00537): direction of change down
Chain of protein kinases (human kinome) (Homo sapiens, UniProt Q00537) (Q00537 whole entry): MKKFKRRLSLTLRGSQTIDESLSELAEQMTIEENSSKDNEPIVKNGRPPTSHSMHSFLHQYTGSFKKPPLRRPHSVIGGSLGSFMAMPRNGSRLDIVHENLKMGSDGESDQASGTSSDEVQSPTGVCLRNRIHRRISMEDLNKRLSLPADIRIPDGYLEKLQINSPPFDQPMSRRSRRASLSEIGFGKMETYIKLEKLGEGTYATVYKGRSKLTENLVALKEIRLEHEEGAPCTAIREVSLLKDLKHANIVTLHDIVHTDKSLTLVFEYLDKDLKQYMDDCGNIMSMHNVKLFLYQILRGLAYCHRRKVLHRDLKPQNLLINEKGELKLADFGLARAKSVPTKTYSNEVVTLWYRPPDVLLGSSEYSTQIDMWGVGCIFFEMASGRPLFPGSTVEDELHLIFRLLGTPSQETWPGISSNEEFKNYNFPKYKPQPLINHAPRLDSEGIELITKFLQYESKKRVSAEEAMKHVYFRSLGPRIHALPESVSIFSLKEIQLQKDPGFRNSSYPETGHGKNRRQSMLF

[5] = target: protein kinases (human kinome) (Homo sapiens, UniProt Q9NYV4)
[6] = target: protein kinases (human kinome) (Homo sapiens, UniProt Q00535); conditions: for logFC of CDK5: Accession Q00535
Chain of protein kinases (human kinome) (Homo sapiens, UniProt Q00535) (Q00535 whole entry): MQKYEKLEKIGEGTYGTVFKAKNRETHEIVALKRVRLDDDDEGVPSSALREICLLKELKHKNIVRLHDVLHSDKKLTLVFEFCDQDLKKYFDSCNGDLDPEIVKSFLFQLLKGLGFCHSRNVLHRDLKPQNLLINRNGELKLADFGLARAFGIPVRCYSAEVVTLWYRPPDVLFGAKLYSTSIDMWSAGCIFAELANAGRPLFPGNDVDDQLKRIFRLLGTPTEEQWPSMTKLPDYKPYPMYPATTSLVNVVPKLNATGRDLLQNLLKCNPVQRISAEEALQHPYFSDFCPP

[7] = target: protein kinases (human kinome) (Homo sapiens, UniProt Q14004); conditions: for logFC CDK13: Accession Q14004-1
Chain of protein kinases (human kinome) (Homo sapiens, UniProt Q14004) (Q14004 whole entry): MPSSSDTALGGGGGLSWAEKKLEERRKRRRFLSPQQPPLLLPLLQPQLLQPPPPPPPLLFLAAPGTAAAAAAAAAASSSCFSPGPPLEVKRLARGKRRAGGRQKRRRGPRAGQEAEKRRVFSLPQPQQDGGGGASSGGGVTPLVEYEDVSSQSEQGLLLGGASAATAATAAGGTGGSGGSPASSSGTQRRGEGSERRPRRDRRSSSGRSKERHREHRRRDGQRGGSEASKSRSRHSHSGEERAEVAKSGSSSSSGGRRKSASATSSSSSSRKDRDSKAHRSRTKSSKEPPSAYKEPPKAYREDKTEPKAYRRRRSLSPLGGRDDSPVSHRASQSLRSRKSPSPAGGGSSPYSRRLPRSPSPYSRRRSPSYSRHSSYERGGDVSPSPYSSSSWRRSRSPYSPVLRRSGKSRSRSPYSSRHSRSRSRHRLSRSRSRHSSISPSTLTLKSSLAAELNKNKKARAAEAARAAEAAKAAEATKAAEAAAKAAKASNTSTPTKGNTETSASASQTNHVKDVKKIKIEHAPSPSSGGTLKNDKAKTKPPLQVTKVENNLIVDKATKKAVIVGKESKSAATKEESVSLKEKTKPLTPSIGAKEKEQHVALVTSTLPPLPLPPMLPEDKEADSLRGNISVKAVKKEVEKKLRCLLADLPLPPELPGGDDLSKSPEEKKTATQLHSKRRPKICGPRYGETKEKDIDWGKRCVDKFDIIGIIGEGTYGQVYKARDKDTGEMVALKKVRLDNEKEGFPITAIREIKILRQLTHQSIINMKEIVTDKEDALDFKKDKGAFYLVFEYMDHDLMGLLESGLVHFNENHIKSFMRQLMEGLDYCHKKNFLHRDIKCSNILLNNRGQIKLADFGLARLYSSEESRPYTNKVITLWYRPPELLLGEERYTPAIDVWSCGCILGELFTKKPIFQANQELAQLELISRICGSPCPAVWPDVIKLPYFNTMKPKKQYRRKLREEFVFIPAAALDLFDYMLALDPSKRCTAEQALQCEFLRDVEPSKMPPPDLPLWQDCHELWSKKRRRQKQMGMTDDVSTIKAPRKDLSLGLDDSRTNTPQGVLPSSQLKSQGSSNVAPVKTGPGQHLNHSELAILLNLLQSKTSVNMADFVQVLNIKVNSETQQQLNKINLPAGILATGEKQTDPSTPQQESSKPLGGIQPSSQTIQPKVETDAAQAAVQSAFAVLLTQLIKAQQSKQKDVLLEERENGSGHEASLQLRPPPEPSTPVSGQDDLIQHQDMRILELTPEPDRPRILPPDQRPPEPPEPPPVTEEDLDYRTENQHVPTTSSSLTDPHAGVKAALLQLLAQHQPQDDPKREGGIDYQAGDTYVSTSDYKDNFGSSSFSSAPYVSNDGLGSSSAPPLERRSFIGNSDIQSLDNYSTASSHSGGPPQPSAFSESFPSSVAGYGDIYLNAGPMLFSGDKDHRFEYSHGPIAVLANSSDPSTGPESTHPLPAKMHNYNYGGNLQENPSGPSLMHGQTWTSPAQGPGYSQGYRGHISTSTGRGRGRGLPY

[8] = target: protein kinases (human kinome) (Homo sapiens, UniProt Q9HBH9); conditions: for logFC MKNK2 (Q9HBH9-1): direction down; for logFC: MKNK2 (Q9HBH9-1)
Chain of protein kinases (human kinome) (Homo sapiens, UniProt Q9HBH9) (Q9HBH9 whole entry): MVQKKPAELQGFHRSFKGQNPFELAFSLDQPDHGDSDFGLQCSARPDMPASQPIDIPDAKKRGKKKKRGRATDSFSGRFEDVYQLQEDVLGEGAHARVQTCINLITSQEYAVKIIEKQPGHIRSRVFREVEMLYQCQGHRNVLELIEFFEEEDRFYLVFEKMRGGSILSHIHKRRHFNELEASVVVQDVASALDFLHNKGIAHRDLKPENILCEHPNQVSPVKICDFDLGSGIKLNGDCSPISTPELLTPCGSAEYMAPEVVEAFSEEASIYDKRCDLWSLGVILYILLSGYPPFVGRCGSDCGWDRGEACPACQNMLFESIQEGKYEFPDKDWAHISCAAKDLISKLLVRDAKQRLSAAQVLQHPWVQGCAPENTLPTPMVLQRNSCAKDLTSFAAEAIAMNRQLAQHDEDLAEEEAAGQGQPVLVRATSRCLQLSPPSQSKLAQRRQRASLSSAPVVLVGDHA

[9] = target: protein kinases (human kinome) (Homo sapiens, UniProt Q14289); conditions: for logFC: PTK2B (Q14289-1) protein abundance, degrader vs DMSO, down; for logFC PTK2B: accession Q14289-1, direction of change down
Chain of protein kinases (human kinome) (Homo sapiens, UniProt Q14289) (Q14289 whole entry): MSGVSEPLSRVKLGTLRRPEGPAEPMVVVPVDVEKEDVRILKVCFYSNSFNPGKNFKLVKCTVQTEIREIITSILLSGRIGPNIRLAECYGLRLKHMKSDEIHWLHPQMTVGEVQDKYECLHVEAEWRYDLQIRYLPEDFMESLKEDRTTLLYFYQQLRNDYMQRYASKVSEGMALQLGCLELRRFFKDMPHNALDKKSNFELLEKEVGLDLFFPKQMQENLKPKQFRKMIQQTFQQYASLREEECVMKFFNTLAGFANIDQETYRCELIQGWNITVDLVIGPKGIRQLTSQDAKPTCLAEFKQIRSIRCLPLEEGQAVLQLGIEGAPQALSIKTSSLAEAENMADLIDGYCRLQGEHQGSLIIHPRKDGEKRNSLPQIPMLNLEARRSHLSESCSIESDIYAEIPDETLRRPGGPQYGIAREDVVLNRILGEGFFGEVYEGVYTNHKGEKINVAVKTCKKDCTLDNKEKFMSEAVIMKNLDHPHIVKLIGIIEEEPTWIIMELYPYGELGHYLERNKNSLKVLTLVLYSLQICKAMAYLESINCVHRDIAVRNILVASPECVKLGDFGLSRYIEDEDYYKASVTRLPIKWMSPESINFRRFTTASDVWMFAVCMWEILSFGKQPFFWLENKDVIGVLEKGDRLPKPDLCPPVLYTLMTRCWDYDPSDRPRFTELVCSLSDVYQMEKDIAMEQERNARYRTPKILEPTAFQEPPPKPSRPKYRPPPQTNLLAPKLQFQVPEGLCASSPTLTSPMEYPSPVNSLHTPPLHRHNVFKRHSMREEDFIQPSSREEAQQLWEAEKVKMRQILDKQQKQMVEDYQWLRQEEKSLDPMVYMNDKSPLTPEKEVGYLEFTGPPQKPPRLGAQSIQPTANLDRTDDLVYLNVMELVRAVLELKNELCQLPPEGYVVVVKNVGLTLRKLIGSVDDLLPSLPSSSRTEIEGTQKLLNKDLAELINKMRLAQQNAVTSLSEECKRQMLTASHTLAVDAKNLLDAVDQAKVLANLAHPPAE

[10] = target: protein kinases (human kinome) (Homo sapiens, UniProt P50613); conditions: CDK7 P50613
Chain of protein kinases (human kinome) (Homo sapiens, UniProt P50613) (P50613 whole entry): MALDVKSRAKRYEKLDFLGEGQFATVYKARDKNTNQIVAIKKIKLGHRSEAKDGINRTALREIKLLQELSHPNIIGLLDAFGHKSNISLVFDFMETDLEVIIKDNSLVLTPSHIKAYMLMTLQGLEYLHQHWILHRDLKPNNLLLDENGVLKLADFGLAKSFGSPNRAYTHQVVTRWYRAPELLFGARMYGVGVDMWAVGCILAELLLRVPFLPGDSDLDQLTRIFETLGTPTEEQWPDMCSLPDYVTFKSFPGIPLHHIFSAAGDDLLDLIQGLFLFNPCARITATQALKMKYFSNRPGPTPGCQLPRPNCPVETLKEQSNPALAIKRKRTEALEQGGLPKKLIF

[11] = target: protein kinases (human kinome) (Homo sapiens, UniProt O43683); conditions: for logFC: BUB1 (O43683); for logFC BUB1 (O43683): direction down

CC(=O)c1c(C)c2cnc(Nc3ccc(N4CCN(CCOCCOCCOCCNC(=O)COc5cccc6c5C(=O)N(C5CCC(=O)NC5=O)C6=O)CC4)cn3)nc2n(C2CCCC2)c1=O (stereo not drawn) [BSJ.03.123]
logFC FASTKD3 ([1]; experiment wp084): −0.4728 | logFC [2]: −0.5666 | logFC PDK1 [2]: −0.5666 | logFC PDK2 ([3]; Accession Q15119-1): −0.3615 | logFC PDK2 (Q15119-1) [3]: −0.3615

CC(C)S(=O)(=O)c1ccccc1Nc1nc(Nc2ccc(N3CCN(CCOCCNC(=O)CNc4cccc5c4C(=O)N(C4CCC(=O)NC4=O)C5=O)CC3)cc2)ncc1Cl (stereo not drawn) [SK.3.91]
logFC FASTKD3 ([1]; experiment wp160, 1 hr): −0.997 | logFC of CDK17 ([4]; experiment wp016): −0.7341 | logFC of CDK17 ([4]; experiment wp016, 1 uM): −0.7503 | logFC of CDK17 ([4]; experiment wp103): −0.6015 | logFC of CDK17 ([4]; experiment wp105): −0.732 | logFC of CDK17 ([4]; experiment wp107): −0.6145 | logFC of CDK17 ([4]; experiment wp133, 2 hr): −0.372 | logFC of CDK17 ([4]; experiment wp133, 4 hr): −0.611 | logFC of CDK17 ([4]; experiment wp160, 4 hr): −0.3952 | logFC of CDK17 ([4]; experiment wp172): −0.7492 | logFC CDK17 (Q00537) ([4]; Experiment wp105): −0.732 | logFC CDK17 (Q00537) ([4]; experiment wp016, 1 uM): −0.7503 | logFC CDK17 (Q00537) ([4]; experiment wp016): −0.7341 | logFC CDK17 (Q00537) ([4]; experiment wp103): −0.6015 | logFC CDK17 (Q00537) ([4]; experiment wp107): −0.6145 | logFC CDK17 (Q00537) ([4]; experiment wp133, 2 hr): −0.372 | logFC CDK17 (Q00537) ([4]; experiment wp133, 4 hr): −0.611 | logFC CDK17 (Q00537) ([4]; experiment wp160, 4 hr): −0.3952 | logFC CDK17 (Q00537) ([4]; experiment wp172): −0.7492 | logFC CDK12 ([5]; Accession Q9NYV4-1, experiment wp016): −1.134 | logFC CDK12 ([5]; Accession Q9NYV4-1, experiment wp016, 1 uM): −0.9325 | logFC CDK12 ([5]; Accession Q9NYV4-1, experiment wp172): −1.234 | logFC CDK12 ([5]; CDK12 (Q9NYV4-1), experiment wp016): −1.134 | logFC CDK12 ([5]; CDK12 (Q9NYV4-1), experiment wp016, 1 uM): −0.9325 | logFC CDK12 ([5]; CDK12 (Q9NYV4-1), experiment wp172): −1.234 | logFC of CDK5 ([6]; experiment wp016): −1.126 | logFC of CDK5 ([6]; experiment wp016, 1 uM): −1.429 | logFC of CDK5 ([6]; experiment wp103): −1.043 | logFC of CDK5 ([6]; experiment wp105): −0.931 | logFC CDK5 (Q00535) ([6]; Experiment wp105, direction of change down): −0.931 | logFC CDK5 (Q00535) ([6]; Experiment wp107): −1.014 | logFC CDK5 (Q00535) ([6]; Experiment wp114): −0.468 | logFC CDK5 (Q00535) ([6]; Experiment wp114, direction of change down): −0.468 | logFC CDK5 (Q00535) ([6]; Experiment wp160, 2 hr): −0.6265 | logFC CDK5 (Q00535) ([6]; Experiment wp172): −1.304 | logFC CDK5 (Q00535) ([6]; experiment wp016, 1 uM, direction of change down): −1.429 | logFC CDK5 (Q00535) ([6]; experiment wp016, direction of change down): −1.126 | logFC CDK5 (Q00535) ([6]; experiment wp103, direction of change down): −1.043 | logFC CDK5 (Q00535) ([6]; experiment wp107, direction of change down): −1.014 | logFC CDK5 (Q00535) ([6]; experiment wp133, 2 hr): −0.6608 | logFC CDK5 (Q00535) ([6]; experiment wp133, 2 hr, direction of change down): −0.6608 | logFC CDK5 (Q00535) ([6]; experiment wp133, 4 hr): −1.242 | logFC CDK5 (Q00535) ([6]; experiment wp133, 4 hr, direction of change down): −1.242 | logFC CDK5 (Q00535) ([6]; experiment wp160, 1 hr): −0.3257 | logFC CDK5 (Q00535) ([6]; experiment wp160, 1 hr, direction of change down): −0.3257 | logFC CDK5 (Q00535) ([6]; experiment wp160, 2 hr, direction of change down): −0.6265 | logFC CDK5 (Q00535) ([6]; experiment wp160, 4 hr): −1.197 | logFC CDK5 (Q00535) ([6]; experiment wp160, 4 hr, direction of change down): −1.197 | logFC CDK5 (Q00535) ([6]; experiment wp172, direction of change down): −1.304 | logFC CDK13 ([7]; experiment wp016): −0.6046 | logFC CDK13 ([7]; experiment wp016, 1 uM): −0.5749 | logFC CDK13 ([7]; experiment wp103): −0.4833 | logFC CDK13 ([7]; experiment wp105): −0.4649 | logFC CDK13 ([7]; experiment wp107): −0.7112 | logFC CDK13 ([7]; experiment wp133, 4 hr): −0.5562 | logFC CDK13 ([7]; experiment wp160, 4 hr): −0.4805 | logFC CDK13 ([7]; experiment wp172): −0.859 | logFC ([7]; CDK13 (Q14004-1), experiment wp016, 1 uM): −0.5749 | logFC CDK13 (Q14004-1) ([7]; Experiment wp172): −0.859 | logFC CDK13 (Q14004-1) ([7]; experiment wp016): −0.6046 | logFC CDK13 (Q14004-1) ([7]; experiment wp103): −0.4833 | logFC CDK13 (Q14004-1) ([7]; experiment wp105): −0.4649 | logFC CDK13 (Q14004-1) ([7]; experiment wp107): −0.7112 | logFC CDK13 (Q14004-1) ([7]; experiment wp133, 4 hr): −0.5562 | logFC CDK13 (Q14004-1) ([7]; experiment wp160, 4 hr): −0.4805 | logFC MKNK2 (Q9HBH9-1) ([8]; Experiment wp133, 1 hr): −0.5168 | logFC MKNK2 (Q9HBH9-1) ([8]; Experiment wp133, 2 hr): −0.5303 | logFC MKNK2 (Q9HBH9-1) ([8]; Experiment wp133, 4 hr): −0.8537 | logFC ([8]; experiment wp133, 1 hr): −0.5168 | logFC ([8]; experiment wp133, 2 hr): −0.5303 | logFC ([8]; experiment wp133, 4 hr): −0.8537 | logFC ([9]; 1 uM): −3.603 | logFC ([9]; 1 hr): −0.8056 and −1.043 | logFC ([9]; 2 hr): −2.027 and −2.105 | logFC PTK2B ([9]; experiment wp016, 1 uM): −3.603 | logFC PTK2B ([9]; experiment wp016): −3.824 | logFC PTK2B ([9]; experiment wp114): −1.885 | logFC PTK2B ([9]; experiment wp133, 1 hr): −0.8056 | logFC PTK2B ([9]; experiment wp133, 2 hr): −2.027 | logFC PTK2B ([9]; experiment wp133, 4 hr): −3.96 | logFC PTK2B ([9]; experiment wp160, 1 hr): −1.043 | logFC PTK2B ([9]; experiment wp160, 2 hr): −2.105 | logFC PTK2B ([9]; experiment wp160, 4 hr): −2.773 | logFC CDK7 ([10]; experiment wp016): −0.5236 | logFC CDK7 ([10]; experiment wp105): −0.6307 | logFC CDK7 ([10]; experiment wp107): −0.4632 | logFC CDK7 ([10]; experiment wp114): −0.5255 | logFC CDK7 ([10]; experiment wp172): −1.186 | logFC ([11]; experiment wp133, 1 hr): −0.4907 | logFC ([11]; experiment wp133, 2 hr): −0.4456 | logFC ([11]; experiment wp133, 4 hr): −0.5963 | logFC BUB1 (O43683) ([11]; Experiment wp133, 1 hr): −0.4907 | logFC BUB1 (O43683) ([11]; Experiment wp133, 2 hr): −0.4456 | logFC BUB1 (O43683) ([11]; Experiment wp133, 4 hr): −0.5963

Reference: patent US20240269139A1, “COMPOUNDS FOR TARGETED PROTEIN DEGRADATION OF KINASES” (DANA-FARBER CANCER INSTITUTE, INC., priority 2020, published 2024)
